We go through twelve compounds from ChEMBL document CHEMBL1201862, “PubChem BioAssay data set” (2004).

Among the test systems are CCRF-CEM; DMS-114; HCC 2998; HOP-92; M19-MEL; MOLT-4; NCI-H226; NCI-H23; NCI-H522; OVCAR-4; OVCAR-5; RXF 393; SK-OV-3; SN12C; SNB-19; SNB-75; U-251; UACC-257; TK-10.
Common to all, as to test: NCI tumour cell line growth inhibition, 48 h

Structures are written as SMILES.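 The compound was tested at five concentrations on cells cultured in 96-well plates, with a 48-hour exposure period. GI50 = concentration required for 50% inhibition of growth.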 Calls of active or inactive are those of the source. No stated cut-off is given here; in the data, active = GI50 up to about 1.1 µM and inactive = higher.

As to `c1cc2c3c(c1)c1cc4c(cc1c[n+]3CC2)OCO4` [ANHYDROLYCORINIUM CHLORIDE], the GI50 was 3.35 µM (inactive) with CCRF-CEM; 2.45 µM (inactive) in the assay with DMS-114; 2.75 µM (inactive) with HCC 2998; 25.3 µM (inactive) in the assay on HOP-92; 1.33 µM (inactive) in the assay with M19-MEL; 1.25 µM (inactive) with MOLT-4. The GI50 was 1.25 µM (inactive) with NCI-H226; 3.59 µM (inactive) in the assay with NCI-H23; 2.3 µM (inactive) with NCI-H522; 0.383 µM (active) in the assay with OVCAR-4; 2.85 µM (inactive) with OVCAR-5; 6.12 µM (inactive) with RXF 393. In addition, the GI50 is 10.2 µM (inactive) with SK-OV-3; 1.99 µM (inactive) with SN12C; 1.17 µM (inactive) in the assay on SNB-19; 2.44 µM (inactive) in the assay on SNB-75; 0.811 µM (active) in the assay with U-251; 5.28 µM (inactive) with UACC-257.

`CCCN(CCCC(NC(C)=O)C(=O)NCc1ccccc1)C(=O)NCCCl` (stereo not given): the GI50 in the assay with CCRF-CEM, in the assay on DMS-114, in the assay with HCC 2998, in the assay on HOP-92, in the assay on M19-MEL and in the assay with MOLT-4 was > 100 µM (inactive) throughout. The GI50 in the assay with NCI-H226, in the assay with NCI-H23, in the assay on NCI-H522, with OVCAR-4, with RXF 393 and in the assay with SN12C was > 100 µM (inactive) in each case. Moreover, the GI50 in the assay with SNB-19, in the assay with SNB-75, with TK-10, in the assay on U-251 and in the assay with UACC-257 was > 100 µM (inactive) throughout.

Regarding `CN1CCC23c4ccccc4NC1C21CCN(C)C3Nc2ccccc21`, the GI50 was 137 µM (inactive) with CCRF-CEM; > 375 µM (inactive) in the assay on DMS-114; > 375 µM (inactive) in the assay on HCC 2998; 94.6 µM (inactive) with HOP-92; > 375 µM (inactive) in the assay with M19-MEL; 151 µM (inactive) in the assay on MOLT-4. Further, the GI50 is 206 µM (inactive) with NCI-H226; > 375 µM (inactive) in the assay on NCI-H23; > 375 µM (inactive) with NCI-H522; > 375 µM (inactive) in the assay with OVCAR-4; > 375 µM (inactive) with OVCAR-5; 152 µM (inactive) with RXF 393. The GI50 in the assay with SK-OV-3 is > 375 µM (inactive); with SN12C, > 375 µM (inactive); with SNB-19, > 375 µM (inactive); in the assay with SNB-75 it was > 303 µM (inactive); in the assay with U-251, > 375 µM (inactive); in the assay with UACC-257, 93.3 µM (inactive).

Turning to `NC(=O)N/N=C/C(/C=N/NC(N)=O)[N+](=O)[O-]`, the GI50 in the assay with CCRF-CEM, with DMS-114, with HOP-92, in the assay on M19-MEL, in the assay with NCI-H226 and with NCI-H23 was > 100 µM (inactive) throughout. Besides, the GI50 in the assay on NCI-H522, in the assay on OVCAR-4, in the assay on OVCAR-5, with RXF 393, in the assay with SK-OV-3 and in the assay on SN12C was > 100 µM (inactive) each time. In addition, the GI50 in the assay on SNB-19, in the assay on SNB-75, in the assay with TK-10 and with UACC-257 was > 100 µM (inactive) each time.

In the case of `CCCCCCCCCCCCCCCCCCOCC(O)CO` (stereo not given) [BATILOL], the GI50 in the assay with CCRF-CEM is 10.7 µM (inactive); in the assay with DMS-114, 18 µM (inactive); with HCC 2998, 12.4 µM (inactive); with HOP-92, 11.7 µM (inactive); in the assay on M19-MEL it was 12 µM (inactive); in the assay on MOLT-4, 17.2 µM (inactive). In addition, the GI50 was > 21.6 µM (inactive) in the assay on NCI-H226; > 25 µM (inactive) in the assay with NCI-H23; 9.18 µM (inactive) with NCI-H522; 21.9 µM (inactive) in the assay on OVCAR-4; > 25 µM (inactive) in the assay on OVCAR-5; 16.7 µM (inactive) in the assay on RXF 393. Further, the GI50 was > 23.5 µM (inactive) in the assay with SK-OV-3; > 25 µM (inactive) with SN12C; > 25 µM (inactive) in the assay with SNB-19; 9.48 µM (inactive) with SNB-75; > 25 µM (inactive) in the assay on U-251; > 23.9 µM (inactive) in the assay with UACC-257.

As for `O=C1/C(=C/c2cccc([N+](=O)[O-])c2)COc2ccc(Br)cc21`, the GI50 in the assay on CCRF-CEM is 13.6 µM (inactive); with DMS-114 it was 65.9 µM (inactive); with HCC 2998 it was > 100 µM (inactive); with HOP-92 it was > 100 µM (inactive); in the assay on M19-MEL it was > 100 µM (inactive); in the assay on MOLT-4, 26.9 µM (inactive). Moreover, the GI50 in the assay on NCI-H23 is > 100 µM (inactive); in the assay with NCI-H522, 55 µM (inactive); with OVCAR-5, > 100 µM (inactive); with RXF 393, > 100 µM (inactive); in the assay on SK-OV-3, > 100 µM (inactive); with SNB-75, 55.7 µM (inactive). Also, the GI50 in the assay with TK-10, with U-251 and with UACC-257 was > 100 µM (inactive) each time.

For the compound `Cc1ccc(C(=O)C(C)N)cc1C` (stereo not given), the GI50 with CCRF-CEM, with DMS-114, in the assay with HCC 2998, with M19-MEL, in the assay on MOLT-4 and with NCI-H226 was > 100 µM (inactive) in each case. Further, the GI50 in the assay with NCI-H23, in the assay with NCI-H522, in the assay on OVCAR-4, with RXF 393, in the assay on SK-OV-3 and in the assay with SN12C was > 100 µM (inactive) throughout. Moreover, the GI50 with SNB-19, in the assay with SNB-75, with TK-10, in the assay with U-251 and in the assay with UACC-257 was > 100 µM (inactive) throughout.

As to `CCCNC1=C(C(=O)OCC)C(=O)CO1`, the GI50 in the assay on CCRF-CEM, in the assay with DMS-114, in the assay on HCC 2998, in the assay with HOP-92, in the assay on M19-MEL and with MOLT-4 was > 100 µM (inactive) in each case. Besides, the GI50 with NCI-H226, in the assay with NCI-H23, in the assay on OVCAR-4, with OVCAR-5, in the assay with RXF 393 and in the assay on SN12C was > 100 µM (inactive) throughout. In addition, the GI50 in the assay with SNB-19, in the assay on SNB-75, with TK-10, with U-251 and with UACC-257 was > 100 µM (inactive) throughout.

Regarding `CC(=O)OC1CC2C(C)(C)C(=O)C=C[C@]2(C)C2CCC3(C)C(=CC(=O)C3c3ccoc3)[C@]12C` (stereo not given in full), the GI50 with CCRF-CEM is 8.47 µM (inactive); in the assay on DMS-114 it was 10 µM (inactive); in the assay with HCC 2998, 12.3 µM (inactive); in the assay on HOP-92 it was 19.9 µM (inactive); with M19-MEL, 16 µM (inactive); with MOLT-4 it was 13.2 µM (inactive). Besides, the GI50 in the assay on NCI-H226 was 17.8 µM (inactive); in the assay on NCI-H23, 12.7 µM (inactive); in the assay with OVCAR-4 it was 18.4 µM (inactive); in the assay with OVCAR-5 it was 22.4 µM (inactive); with RXF 393, 2.3 µM (inactive); with SK-OV-3, 20.7 µM (inactive). Moreover, the GI50 is 16.7 µM (inactive) in the assay on SN12C; 15.6 µM (inactive) in the assay with SNB-19; 12.5 µM (inactive) in the assay with SNB-75; 15.7 µM (inactive) with TK-10; 17.4 µM (inactive) with UACC-257.

Consider `CC(=O)Oc1cc2c(cc1OC(C)=O)OCC(c1ccc(C)cc1)C2` (stereo not given), for which the GI50 in the assay with CCRF-CEM is 4.07 µM (inactive); in the assay on DMS-114, 4.94 µM (inactive); with HCC 2998 it was 12.6 µM (inactive); in the assay on HOP-92 it was 8.85 µM (inactive); in the assay with M19-MEL, 9.29 µM (inactive); in the assay on MOLT-4, 7.19 µM (inactive). Moreover, the GI50 is 27.1 µM (inactive) with NCI-H226; 15.9 µM (inactive) in the assay on NCI-H23; 2.64 µM (inactive) with NCI-H522; 13 µM (inactive) in the assay with OVCAR-4; 33.5 µM (inactive) in the assay with OVCAR-5; 17.5 µM (inactive) in the assay on RXF 393. The GI50 is 53.7 µM (inactive) in the assay on SK-OV-3; 18.1 µM (inactive) with SN12C; 31.4 µM (inactive) with SNB-19; 9.42 µM (inactive) with SNB-75; 9.91 µM (inactive) in the assay on U-251; 21.4 µM (inactive) in the assay with UACC-257.

`COC(=O)C(=Cc1cc(OC)c(OC)c(OC)c1-c1cc2c(cc1C(C)=O)OCO2)C(=O)OC`: the GI50 in the assay on CCRF-CEM was 30.6 µM (inactive); in the assay on DMS-114 it was 37.5 µM (inactive); in the assay with HCC 2998 it was 40.3 µM (inactive); in the assay on HOP-92 it was 44 µM (inactive); with M19-MEL, 34.6 µM (inactive); in the assay on MOLT-4 it was 52.2 µM (inactive). The GI50 with NCI-H226 is 50.9 µM (inactive); in the assay with NCI-H23 it was 34.7 µM (inactive); with NCI-H522, 28.5 µM (inactive); with OVCAR-5 it was 43 µM (inactive); in the assay on RXF 393, 33.7 µM (inactive); with SK-OV-3, 71.9 µM (inactive). Also, the GI50 was 27.7 µM (inactive) with SN12C; 39 µM (inactive) with SNB-19; 77.8 µM (inactive) in the assay on TK-10; 37.2 µM (inactive) in the assay on U-251; 52 µM (inactive) in the assay on UACC-257.

In the case of `CCOc1ccc(/N=N/c2ccc3oc(=O)c(/C(C)=N\NC(=O)CC(=O)Nc4ccc(Cl)cc4)cc3c2)cc1`, the GI50 was 0.337 µM (active) in the assay on CCRF-CEM; 15.9 µM (inactive) in the assay with DMS-114; 16.3 µM (inactive) in the assay on HCC 2998; 25.2 µM (inactive) in the assay with HOP-92; 27.9 µM (inactive) in the assay with M19-MEL; 4.09 µM (inactive) with MOLT-4. Further, the GI50 in the assay on NCI-H226 is 88.9 µM (inactive); in the assay with NCI-H23 it was 18.7 µM (inactive); in the assay on NCI-H522, 18.6 µM (inactive); with OVCAR-4, 20.4 µM (inactive); in the assay on OVCAR-5, 99.5 µM (inactive); in the assay on RXF 393, 14.2 µM (inactive). Besides, the GI50 in the assay on SK-OV-3 was 19.9 µM (inactive); in the assay on SN12C it was 26.1 µM (inactive); in the assay with SNB-19, 27.3 µM (inactive); in the assay on TK-10, 12.9 µM (inactive); in the assay on U-251 it was 16.4 µM (inactive).
